Results on 18 compounds are retold here after US12629374B2, “Antimalarial agents” (Merck Sharp & Dohme LLC, priority 2020, dated 2026).

For orientation: EC50 means the concentration giving half of the maximal effect.

For one test, the system named is ring stage parasites. Kind of test: Parasite growth potency assay, 72 hours, LDH readout. Format: cell-based. As to conditions: 72 h. The method, boiled down:
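Parasite growth was quantified by LDH assay after a −80 °C freeze-thaw. Before that, compound was incubated for 72 h at 37 °C under humidified gas with ring-stage cultures adjusted to 0.7% parasitemia and 2% haematocrit in serum- and albumax-supplemented RPMI-Hepes.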
With `CCC1(CC)CC(=O)N([C@@H](c2cccc(OS(=O)(=O)F)c2)c2cccc(C(=O)N[C@H]3CCOc4ccccc43)c2)C(=N)N1` [Example 149B, [1-[[3-[[(4S)-chroman-4-yl]carbamoyl]phenyl]-(3-fluorosulfonyloxyphenyl)methyl]-4,4-diethyl-6-oxo-hexahydropyrimidin-2-ylidene]ammonium; 2,2,2-trifluoroacetate], the EC50 stood at 57.6 nM.

The same test, now with this note: 72 h, parasite growth measured by LDH assay after 72 hours at 37° C.; 0.7% rings, 2% haematocrit; read-out: EC50.
`CCC1(CC)CC(=O)N([C@H](CCC#N)c2cccc(C(=O)N[C@H]3CCOc4ccccc43)c2)C(=N)N1` [Example 73A, [1-[1-[3-[[(4S)-chroman-4-yl]carbamoyl]phenyl]-3-cyano-propyl]-4,4-diethyl-6-oxo-hexahydropyrimidin-2-ylidene]ammonium; 2,2,2-trifluoroacetate]: the EC50 worked out at 0.7 nM.

With `CCC1(CC)CC(=O)N([C@H](CCOC)c2cccc(C(=O)N[C@@H]3c4ccccc4OC[C@@H]3O)c2)C(=N)N1` [Example 152A, [4,4-diethyl-1-[(1R)-1-[3-[[(3R,4R)-3-hydroxychroman-4-yl]carbamoyl]phenyl]-3-methoxy-propyl]-6-oxo-hexahydropyrimidin-2-ylidene]ammonium; 2,2,2-trifluoroacetate], the EC50 was 8.8 nM.

On to `CCC[C@H](c1cccc(C(=O)N[C@H]2CCOc3ccccc32)c1)N1C(=N)NC(CC)(CC)CC1=O` [Example 13A, [1-[1-[3-[[(4S)-chroman-4-yl]carbamoyl]phenyl]butyl]-4,4-diethyl-6-oxo-hexahydropyrimidin-2-ylidene]ammonium; 2,2,2-trifluoroacetate], for which the concentration giving a half-maximal response (EC50) stood at 0.3 nM.

As to `CCC1(CC)CC(=O)N(Cc2cccc(C(=O)N[C@@H]3c4ccccc4C(F)(F)C3O)c2)C(=N)N1` (stereo in doubt) [Example 190, [1-[[3-[(3,3-difluoro-2-hydroxy-indan-1-yl)carbamoyl]phenyl]methyl]-4,4-diethyl-6-oxo-hexahydropyrimidin-2-ylidene]ammonium; 2,2,2-trifluoroacetate], the EC50 turned out to be 6.6 nM.

With `CC(C)[C@]1(C)CC(=O)N([C@H](c2ccccc2)c2cccc(C(=O)N[C@H]3CCOc4ccccc43)c2)C(=N)N1` [Example 9A, [(4S)-1-[(R)-[3-[[(4S)-chroman-4-yl]carbamoyl]phenyl]-phenyl-methyl]-4-isopropyl-4-methyl-6-oxo-hexahydropyrimidin-2-ylidene]ammonium; 2,2,2-trifluoroacetate], the EC50 was 0.5 nM.

Regarding `C#CCC[C@@H](c1cncc(C(=O)N[C@H]2CC(C)(C)Oc3ccccc32)c1)N1C(=N)N[C@](C)(C(C)C)CC1=O` [Example 114B, [(4S)-1-[1-[5-[[(4S)-2,2-dimethylchroman-4-yl]carbamoyl]pyridin-1-ium-3-yl]pent-4-ynyl]-4-isopropyl-4-methyl-6-oxo-hexahydropyrimidin-2-ylidene]ammonium; 2,2,2-trifluoroacetate], the EC50 worked out at 18.4 nM.

With `CCC1(CC)CC(=O)N([C@@H](c2cccnc2)c2cccc(C(=O)N[C@H]3CC(C)(C)Oc4ccccc43)c2)C(=N)N1` [Example 100B, [1-[[3-[[(4S)-2,2-dimethylchroman-4-yl]carbamoyl]phenyl]-pyridin-1-ium-3-yl-methyl]-4,4-diethyl-6-oxo-hexahydropyrimidin-2-ylidene]ammonium; 2,2,2-trifluoroacetate], the EC50 stood at 4.8 nM.

With `COCC[C@H](c1cccc(C(=O)N[C@@H]2c3ccccc3OC(C)(C)[C@@]2(C)O)c1)N1C(=N)NC(C)(C)CC1=O` [Example 231, N-[(3S,4R)-3-hydroxy-2,2,3-trimethyl-chroman-4-yl]-3-[(1R)-1-(2-imino-4,4-dimethyl-6-oxo-hexahydropyrimidin-1-yl)-3-methoxy-propyl]benzamide], the EC50 was 2.9 nM.

Consider `CCC1(CC)CC(=O)N([C@H](CCOC)c2cccc(C(=O)N[C@@H]3c4ccccc4OC(C)(C)[C@H]3O)c2)C(=N)N1` (stereo in doubt) [Example 128, [4,4-diethyl-1-[1-[3-[(3-hydroxy-2,2-dimethyl-chroman-4-yl)carbamoyl]phenyl]-3-methoxy-propyl]-6-oxo-hexahydropyrimidin-2-ylidene]ammonium; 2,2,2-trifluoroacetate], for which the EC50 was 1.1 nM.

For `CCC1(CC)CC(=O)N([C@H](CCOC)c2cccc(C(=O)N[C@@H]3c4ccccc4C[C@H]3O)c2)C(=N)N1` [Example 2, 3-((R)-1-(4,4-diethyl-2-imino-6-oxotetrahydropyrimidin-1(2H)-yl)-3-methoxypropyl)-N-((1R,2R)-2-hydroxy-2,3-dihydro-1H-inden-1-yl)benzamide], the EC50 amounted to 1.3 nM.

Regarding `CC(C)[C@]1(C)CC(=O)N(Cc2cccc(C(=O)N[C@@H]3c4ccccc4C[C@@H]3O)c2)C(=N)N1` [Example 18, [(4S)-1-[[3-[[(1R,2S)-2-hydroxyindan-1-yl]carbamoyl]phenyl]methyl]-4-isopropyl-4-methyl-6-oxo-hexahydropyrimidin-2-ylidene]ammonium; 2,2,2-trifluoroacetate], the EC50 was found to be 21.5 nM.

Consider `COCC[C@H](c1cccc(C(=O)N[C@@H]2c3ccccc3C3(CC3)[C@H]2O)c1)N1C(=N)NC(C)(C)CC1=O` [Example 167, [1-[(1R)-1-[3-[(2′-hydroxyspiro[cyclopropane-1,3′-indane]-1′-yl)carbamoyl]phenyl]-3-methoxy-propyl]-4,4-dimethyl-6-oxo-hexahydropyrimidin-2-ylidene]ammonium; 2,2,2-trifluoroacetate], for which the EC50 stood at 3.1 nM.

Take `CC(C)[C@]1(C)CC(=O)N([C@@H](c2cccnc2)c2cccc(C(=O)N[C@H]3CC(C)(C)Oc4ccccc43)c2)C(=N)N1` [Example 101B, [(4S)-1-[[3-[[(4S)-2,2-dimethylchroman-4-yl]carbamoyl]phenyl]-pyridin-1-ium-3-yl-methyl]-4-isopropyl-4-methyl-6-oxo-hexahydropyrimidin-2-ylidene]ammonium; 2,2,2-trifluoroacetate]: the concentration giving a half-maximal response (EC50) was determined as 1.5 nM.

Take `CCC1(CC)CC(=O)N(Cc2cc(C(=O)N[C@H]3C[C@H](C(F)(F)F)Oc4ccccc43)ccn2)C(=N)N1` [Example 134, [4,4-diethyl-6-oxo-1-[[4-[[(2R,4S)-2-(trifluoromethyl)chroman-4-yl]carbamoyl]pyridin-1-ium-2-yl]methyl]hexahydropyrimidin-2-ylidene]ammonium; 2,2,2-trifluoroacetate]: the EC50 was found to be 8.6 nM.

Take `CCC1(CC)CC(=O)N(Cc2cccc(C(=O)N[C@H]3CCOc4ccc(Br)cc43)c2)C(=N)N1` (stereo in doubt) [Example 219, [1-[[3-[(6-bromochroman-4-yl)carbamoyl]phenyl]methyl]-4,4-diethyl-6-oxo-hexahydropyrimidin-2-ylidene]ammonium; 2,2,2-trifluoroacetate]: the EC50 worked out at 6.6 nM.

Still in this test, the particulars now being: parasite growth measured by LDH assay after 72 hours at 37° C.; 0.7% rings, 2% haematocrit; read-out: EC50.
On to `CCC1(CC)CC(=O)N(C(c2cncnc2)c2cccc(C(=O)NC3CC(C)(C)Oc4ccccc43)c2)C(=N)N1` (single isomer, unassigned) [Example 92C, 3-[(4,4-diethyl-2-imino-6-oxo-hexahydropyrimidin-1-yl)-pyrimidin-5-yl-methyl]-N-(2,2-dimethylchroman-4-yl)benzamide], for which the 50% effective concentration (EC50) was 2.8 nM.

For the compound `CCC1(CC)CC(=O)N(C(c2cncnc2)c2cccc(C(=O)N[C@@H]3c4ccccc4C[C@H]3O)c2)C(=N)N1` (stereo partly drawn) [Example 110A, 3-[(4,4,-diethyl-2-imino-6-oxo-hexahydropyrimidin-1-yl)-pyrimidin-5-yl-methyl]-N-[(1R,2R)-2-hydroxyindan-1-yl]benzamide], the EC50 was found to be 4 nM.
